Measurements reported in patent US20070196890A1, “Prebiotic effect analysis” (priority 2003, published 2007).

Experiments:
Desulfovibrio spp. = test: Batch culture fermentation, FISH enumeration; format: cell-based; settings: 1% (w/v) substrate
Protocol: (§1) Faecal samples are obtained from healthy human volunteers. Volunteers are required not to have been prescribed antibiotics for at least 6 months prior to the study and have no history of gastrointestinal diseases. The samples are collected on site and used immediately following collection. A 1/10 dilution in anaerobic phosphate buffer (0.1 M, pH 7.4) is prepared and the samples homogenised in a stomacher for 2 minutes.
(§2) Sterile, stirred, batch culture fermentation vessels (300 ml volume) are filled with 135 ml basal nutrient medium (peptone water 2 g/l, yeast extract 2 g/l, NaCl 0.1 g/l, K2HPO4 0.04 g/l, KH2PO4 0.04 g/l, MgSO4.7H2O 0.01 g/l, CaCl2.6H2O 0.01, NaHCO3 2 g/l, Tween 80 2 ml, Hemin 0.02 g/l, Vitamin K1 10 μl, Cysteine.HCl 0.5 g/l, Bile salts (sodium glycocholate and sodium taurocholate) 0.5 g/l, pH 7.0) and gassed overnight with oxygen free nitrogen. Prior to addition of the faecal slurry,0.25%, 0.5% or 1% (w/v) testing substrates are added to different vessels, culture temperature is set at 37° C. by means of a circulating water bath and medium pH is maintained at 6.8 using an Electrolab pH controller. The vessels are inoculated with 15 ml of fresh faecal slurry ( 1/10 w/v) and continuously sparged with O2-free N2 at a flow rate of 15 ml/min. Samples (3 ml) from each vessel are obtained for fluorescence in situ hybridisation (FISH), analysis of SCFA by high performance liquid chromatography (HPLC) and total carbohydrate measurement by assay. Batch cultures are run over a period of 24 hours and samples are obtained every 2 hours up to 12 hours and then at 15 and 24 hours.
(§3) Differences in bacterial populations are assessed through use of FISH with oligonucleotide probes designed to target diagnostic regions of 16S rRNA. These are commercially synthesised and labelled with the fluorescent dye Cy3 (provided by Eurogentec UK Ltd).
(§4) For total bacterial counts the nucleic acid stain 4,6-diamidino-2-phenylindole (DAPI) is used. Samples obtained from fermentation vessels are diluted in 4% (w/v) paraformaldehyde and fixed overnight at 4° C. The cells are then centrifuged at 1500×g for 5 minutes, washed twice with phosphate-buffered saline (PBS; 0.1 M, pH 7.0), resuspended in a mixture of PBS/99% ethanol (1:1 w/v) and stored at −20° C. for at least 1 hour. For Lab 158 probe samples are further resuspended in the enzyme mixture containing agents that increase cell permeability and incubated for 1 hour at 37° C. The cells are then washed in PBS, resuspended in 100% methanol and stored at −20° C. for at least 1 hour. The cell suspension is then added to the hybridisation mixture and left overnight to hybridise at the appropriate temperature for each probe. Hybridized mixture is vacuum filtered using a 0.2 μm Isopore membrane filter (Millipore Corporation, Herts, UK). The filter is removed, placed onto a glass slide with SlowFade (Molecular Probes, Eugan, Oreg., USA) and examined under a fluorescent microscope (Nicon Eclipse, E400). The DAPI stained cells are examined under UV light and hybridised cells viewed using a DM510 filter. […] Samples are taken after 24 hours. […] Microbial counts are presented as log10cells/ml.

Bacteroides spp. = test: Batch culture fermentation, FISH enumeration; format: cell-based; settings: 1% (w/v) substrate
Protocol: as §1, §2, §3, §4

Bifidobacterium spp. = test: Batch culture fermentation, FISH enumeration; format: cell-based; settings: 1% (w/v) substrate
Protocol: as §1, §2, §3, §4

E. coli = test: Batch culture fermentation, FISH enumeration; format: cell-based, Escherichia coli; settings: 1% (w/v) substrate
Excerpt: For total bacterial counts the nucleic acid stain 4,6-diamidino-2-phenylindole (DAPI) is used. […] For each slide at least 15 different fields of view are counted. […]

faecal bacteria [1] = test: Measure of the prebiotic effect (MPE), batch culture; format: cell-based, human; settings: ½√(x²y²+x²z²+y²z²), x=PI (μmax), y=ratio, z=Ar; sign from PI
Excerpt: The three values (PI, Ar and ratio) obtained are used to calculate the MPE value using the following equation: ½√{square root over (x^2y^2+x^2z^2+y^2z^2)}=MPE wherein x=PI (as calculated under paragraph 2.1.2); y=ratio of lactate over total SCFA (as calculated under paragraph 2.2) and z=Ar (as calculated under paragraph 2.3).

faecal bacteria [2] = test: Total carbohydrate assay, rate of substrate assimilation, batch culture; format: cell-based, human; settings: St=S0−Art, S0=1% by weight, exponential phase of bacterial growth
Protocol: A phenol-sulphuric acid assay is used for the determination of total carbohydrate content as expressed in glucose equivalents. The assay is calibrated with D-glucose standards ranging from 0 to 0.15 mgml^−1. Measurements of the absorbance at 450 nm are taken using the spectrophotometer and plotted against the standards. The total carbohydrate content is thus calculated. […] Samples are taken every 2 hours up to […] and then at 15 and 24 hours. […] The rate of assimilation is calculated with the following equation: St=S0−Art […]

faecal bacteria [3] = test: Analysis of SCFA production by HPLC, batch culture; format: cell-based, human; settings: 1% (w/v) substrate
Protocol: The production of succinic, lactic, formic, acetic, propionic, isobutyric, butyric, isovaleric and valeric acids in the fermentations is quantified by HPLC. Samples are centrifuged at 1500×g for 15 minutes and the resultant supernatant used for injection. A Model 1050 UV HPLC (Hewlett Packard), with an integrated oven compartment (50° C.) and data system is used in combination with a differential refractometer (Knauer). Sample injection is performed using an autosampler and is of 20 μl volume. The column is a pre-packed Aminex HPX-87-H strong cation-exchange resin column (150×7.8 mm I.D.), fitted with an ion exclusion micro-guard refill cartridge (Bio-Rad Labs., USA). The eluent used is 0.005 M sulphuric acid. Faecal samples are incubated with 135 ml basal nutrient medium containing 1% (w/v) substrate in batch culture systems at 37° C. Samples are taken every 2 hours up to 10 hours and then at 15 and 24 hours.

Eubacteria = test: Batch culture fermentation, FISH enumeration; format: cell-based, Eubacterium rectale; settings: 1% (w/v) substrate
Protocol: as §1
(§5) Sterile, stirred, batch culture fermentation vessels (300 ml volume) are filled with 135 ml basal nutrient medium (peptone water 2 g/l, yeast extract 2 g/l, NaCl 0.1 g/l, K2HPO4 0.04 g/l, KH2PO4 0.04 g/l, MgSO4.7H2O 0.01 g/l, CaCl2.6H2O 0.01, NaHCO3 2 g/l, Tween 80 2 ml, Hemin 0.02 g/l, Vitamin K1 10 μl, Cysteine.HCl 0.5 g/l, Bile salts (sodium glycocholate and sodium taurocholate) 0.5 g/l, pH 7.0) and gassed overnight with oxygen free nitrogen. […] Samples (3 ml) from each vessel are obtained for fluorescence in situ hybridisation (FISH), analysis of SCFA by high performance liquid chromatography (HPLC) and total carbohydrate measurement by assay. […]
(§6) Differences in bacterial populations are assessed through use of FISH with oligonucleotide probes designed to target diagnostic regions of 16S rRNA. […]

Lactobacilli = test: Batch culture fermentation, FISH enumeration; format: cell-based, Lactobacillus/Enterococcus spp.; settings: 1% (w/v) substrate
Protocol: as §1, §5, §6

Clostridia = test: Batch culture fermentation, FISH enumeration; format: cell-based, Clostridium coccoides and Clostridium histolyticum; settings: 1% (w/v) substrate
Protocol: as §1, §5, §6

SMILES: OC[C@H]1O[C@@](CO)(O[C@H]2O[C@H](CO)[C@@H](O)[C@H](O)[C@H]2O)[C@@H](O)[C@@H]1O [Sucrose, sucrose]
- μmax SRB (maximum growth rate, Desulfovibrio spp) (Desulfovibrio spp.): 0.21 h⁻¹
- Desulfovibrio microbial counts (Desulfovibrio spp.; 24 hours, FISH): 6.7 log10cells/ml
- μmax Ba (maximum growth rate, Bacteroides spp) (Bacteroides spp.): 0.11 h⁻¹
- Bacteroides microbial counts (Bacteroides spp.; 24 hours, FISH): 8.1 log10cells/ml
- μmax B (maximum growth rate, Bifidobacterium spp) (Bifidobacterium spp.): 0.13 h⁻¹
- Bifidobacteria microbial counts (Bifidobacterium spp.; 24 hours, FISH): 8.0 log10cells/ml
- μmax Co (maximum growth rate, Escherichia coli) (E. coli): 0.27 h⁻¹
- E. Coli microbial counts (E. coli; 24 hours, FISH): 7.7 log10cells/ml
- MPE (measure of the prebiotic effect) (faecal bacteria [1]): −0.6
- Ar (rate of substrate assimilation) (faecal bacteria [2]): 1.4 per hour
- Ar (rate of substrate assimilation) (faecal bacteria [2]; listed as sucrose): 1.40 per hour
- lactate production (faecal bacteria [3]): low
- μmax E (maximum growth rate, Eubacterium rectale) (Eubacteria): -0.21 h⁻¹
- Eubacteria microbial counts (Eubacteria; 24 hours, FISH): 7.7 log10cells/ml
- μmax L (maximum growth rate, lactobacilli) (Lactobacilli): 0.03 h⁻¹
- Lactobacilli microbial counts (Lactobacilli; 24 hours, FISH): 6.7 log10cells/ml
- μmax Cl (maximum growth rate, Clostridium coccoides and Clostridium histolyticum) (Clostridia): 0.22 h⁻¹
- Clostridia microbial counts (Clostridia; 24 hours, FISH): 7.6 log10cells/ml
